Measurements published in patent US20160102317A1, “PLANTS HAVING INCREASED TOLERANCE TO HERBICIDES” (BASF SE, priority 2013, published 2016).

Assays:
[1] = target: T1, Arabidopsis HPPD (SEQ ID NO:53), wild-type (Arabidopsis thaliana, UniProt P93836); test: HPPD activity assay (HGA by HPLC), wild-type enzyme characterization; format: biochemical; conditions: Arabidopsis HPPD
T1 construct: His6 (N); made in house; host or cells: E. coli BL21 (DE3)
T1 sequence (P93836 1-445): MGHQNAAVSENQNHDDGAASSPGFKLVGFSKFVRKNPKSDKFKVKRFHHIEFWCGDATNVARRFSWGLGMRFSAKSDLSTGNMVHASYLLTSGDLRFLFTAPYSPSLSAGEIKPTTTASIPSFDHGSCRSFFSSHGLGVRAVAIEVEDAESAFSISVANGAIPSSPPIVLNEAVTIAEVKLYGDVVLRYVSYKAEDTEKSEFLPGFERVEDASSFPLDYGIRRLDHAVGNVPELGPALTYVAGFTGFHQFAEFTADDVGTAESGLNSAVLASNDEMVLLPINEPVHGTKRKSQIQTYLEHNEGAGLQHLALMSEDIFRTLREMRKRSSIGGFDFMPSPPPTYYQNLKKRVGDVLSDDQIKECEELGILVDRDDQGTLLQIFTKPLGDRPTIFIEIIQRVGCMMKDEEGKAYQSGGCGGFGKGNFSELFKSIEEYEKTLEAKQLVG
Procedure: (§1) HPPD produces homogentisic acid and CO2 from 4-hydroxyphenylpyruvate (4-HPP) and 02. The activity assay for HPPD is based on the analysis of homogentisic acid by reversed phase HPLC. The assay mixture can contain 150 mM potassium phosphate buffer pH 7.0, 50 mM L-ascorbic acid, 100 μM Catalase (Sigma-Aldrich), 1 μM FeSO4 and 0.2 units of purified HPPD enzyme in a total volume of 505 μl. 1 unit is defined as the amount of enzyme that is required to produce 1 nmol of HGA per minute at 20° C.
(§2) After a preincubation of 30 min the reaction is started by adding 4-HPP to a final concentration of 0.05 mM. The reaction is allowed to proceed for 45 min at room temperature. The reaction is stopped by the addition of 50 μl of 4.5 M phosphoric acid. The sample is filtered using a […] pore size PVDF filtration device.
(§3) 5 μl of the cleared sample is analyzed on an UPLC HSS T3 column (particle size 1.8 μm, dimensions 2.1×50 mm; Waters) by isocratic elution using 90% 20 mM NaH2PO4 pH 2.2, 10% methanol (v/v).
(§4) HGA is detected electrochemically at 750 mV (mode: DC; polarity: positive) and quantified by integrating peak areas (Empower software; Waters).
(§5) Inhibitors are dissolved in DMSO (dimethylsulfoxide) to a concentration of 0.5 mM. From this stock solution serial five-fold dilutions are prepared in DMSO, which are used in the assay. The respective inhibitor solution accounts for 1% of the assay volume. […] Activities are normalized by setting the uninhibited enzyme activity to 100%. IC50 values are calculated using non-linear regression.
(§6) Using methods which are described in the above examples or well known in the art, purified, recombinant wild-type HPPD enzymes are characterized with respect to their kinetic properties and sensitivity towards HPPD inhibiting herbicides. Apparent michaelis constants (Km) and maximal reaction velocities (Vmax) are calculated by non-linear regression with the software GraphPad Prism 5 (GraphPad Software, La Jolla, USA) using a substrate inhibition model. […] Weighted means (by standard error) of Km and IC50 values are calculated from at least three independent experiments.
(§7) Field performance of the HPPD enzyme, which is used as a herbicide tolerance trait, may depend not only on its lack of sensitivity towards HPPD inhibiting herbicides but also on its activity. To assess the potential performance of a herbicide tolerance trait a tolerance index (TI) is calculated using the following formula: […]
(§8) Easy comparison and ranking of each trait is enabled by normalizing tolerance indexes on Arabidopsis wild-type HPPD.

[2] = target: T2, Hordeum HPPD (SEQ ID NO:2), wild-type (Hordeum vulgare, UniProt O48604, A164G/R146V/R147D/R148G); test: as above; format: biochemical; conditions: Hordeum HPPD
T2 construct: His (N); made in house; host or cells: E. coli BL21 (DE3)
T2 sequence (O48604 whole entry R146V/R147D/R148G/A164G): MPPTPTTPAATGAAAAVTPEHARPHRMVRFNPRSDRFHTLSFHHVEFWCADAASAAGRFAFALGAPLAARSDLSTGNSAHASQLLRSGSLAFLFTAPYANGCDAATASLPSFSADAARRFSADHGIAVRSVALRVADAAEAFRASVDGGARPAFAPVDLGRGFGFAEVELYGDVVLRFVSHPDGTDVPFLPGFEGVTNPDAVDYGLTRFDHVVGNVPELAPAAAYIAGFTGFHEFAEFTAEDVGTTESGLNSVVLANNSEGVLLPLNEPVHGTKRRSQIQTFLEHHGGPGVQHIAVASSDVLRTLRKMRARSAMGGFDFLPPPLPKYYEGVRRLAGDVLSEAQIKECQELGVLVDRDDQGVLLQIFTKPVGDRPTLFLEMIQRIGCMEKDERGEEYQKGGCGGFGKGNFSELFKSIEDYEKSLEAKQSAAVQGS
Procedure: as §1, §2, §3, §4, §5, §6, §7, §8

[3] = apparent Km, read-out: Km [μM] (4-HPP)
[4] = apparent kcat from Vmax, substrate 4-HPP

SMILES: O=C(O)C(=O)Cc1ccc(O)cc1 [Inhibitor 4-HPP, 4-hydroxyphenylpyruvate, reference compound]
- Km [1, 3]: 13 µM
- kcat [1, 4]: 12.9 S^−1
- Km [2, 3]: 26 µM
- kcat [2, 4]: 11.5 S^−1
